Source: US20110081317A1, “Enhancing Gene Transfer” (UNIVERSITY OF ROCHESTER, priority 2007, published 2011)
Peptide text beside a SMILES is read from it. * marks the point of attachment. Cbz = O=C(OCc1ccccc1)*

How the values were obtained:
[1] = tested on: COS cells stably transfected with Fc receptor (CD64) and its associated gamma chain; test: Plasmid/Lipofectamine-mediated luciferase gene transfer in CD64-expressing COS cells; type: cell-based; details: 30 min pretreatment, luciferase at 48 h; for increase in plasmid gene transfer efficiency: nocodazole 5 μM or paclitaxel 20 μg/ml
Procedure: FIG. 12 is a graph showing plasmid mediated luciferase gene transfer in cells treated with a microtubule inhibitor. A DNA plasmid encoding a luciferase reporter gene was mixed with Lipofectamine. This was then added to COS cells that had been stably transfected with expression plasmids encoding a cellular Fc receptor (CD64) and its associated gamma chain, in the presence or absence (DNA only and DNA+DMSO) of latrunculin A (120 nM), paclitaxel (20 μg/ml), or nocodazole (5 μM). Cells were harvested 48 hours later and lysed, and luciferase activity measured.
A DNA plasmid encoding a luciferase reporter gene was mixed with Lipofectamine™ (Invitrogen, Carlsbad, Calif.). This was then added to COS cells that had been stably transfected expression plasmids encoding a cellular Fc receptor
(CD64) and its associated gamma chain. DNA was added to cells that had been pretreated for 30 minutes in the presence or absence of the microtubule inhibitors, nocodazole (5 μM) or paclitaxel (20 μg/ml), or the actin polymerization inhibitor, latrunculin A (120 nM). Cells were harvested 48 hours after transfection and lysed, and luciferase activity was measured.

COS-7 cells = test: Adenovirus vector (AdLucGFP) mediated luciferase gene transfer in COS-7 cells; type: cell-based; details: AdLucGFP MOI 10, latrunculin A 120 nM added 30 min before transduction
Procedure: FIG. 13 is a graph showing, in cells treated with paclitaxel, nocodazole, or latrunculin A, adenoviral-mediated luciferase gene transfer. Latrunculin A ([…]), paclitaxel (20 μg/ml), or nocodazole (5 μM) was added to cells 30 minutes prior to transduction of COS-7 cells with a luciferase-expressing adenovirus vector (AdLucGFP) at a multiplicity of infection (MOI) of 10. Media were changed 24-hours post-transfection, and cells were lysed in Passive Lysis Buffer 24 hours later. Protein quantities were standardized and luciferase activity was measured in the cell lysates. The mean control level is shown as Ad only.
Latrunculin A (120 nM), paclitaxel (Taxol® (Bristol Meyers Squibb, Princeton, N.J.), 20 μg/ml), or nocodazole (5 μM) was added to cells 30 minutes prior to transduction of COS-7 cells with a luciferase-expressing adenovirus vector (AdLucGFP) at a multiplicity of infection (MOI) of 10. Media were changed 24-hours post-transfection, and cells were lysed in Passive Lysis Buffer 24 hours later. Protein quantities were standardized and luciferase activity was measured in the cell lysates.

COS cells = test: Phage-mediated luciferase gene transfer in COS cells; type: cell-based, simian; details: luciferase at 48 h; for effect on phage-mediated luciferase gene transfer: MOI 1×10^6, omeprazole 50 μM, brefeldin A 500 ng/ml, chloroquine 70 μM for 24 h
Procedure: (§1) Preparation of bacteriophage lambda lysogens and vector production. The λD1180(luc) lysogen (Dam15 del EcoRI-Sac1 clts857 nin5 Sam100) has been described (Eguchi et al., J. Biol. Chem. 276(28):26204-10, 2001). The λD1180(luc) phage contains a firefly luciferase reporter gene under the regulatory control of the human cytomegalovirus immediate-early promoter. λD1180(luc) phage particles were prepared from E. coli lysogens that were stably transformed with either a plasmid encoding wildtype gpD or plasmids encoding gpD fusion proteins of interest, as described (Zanghi et al., Nucleic Acids Res. 33(18):e160, 2005). λ(luc) particles were purified by CsCl density gradient centrifugation and titered on LE392 E. coli cells (Zanghi et al., Nucleic Acids Res. 33(18):e160,2005).
(§2) Cells lines and phage transduction. Human embryonic kidney (HEK) 293 cells and COS simian kidney cells were obtained from American Type Culture Collection (ATCC), P.O. Box 1549, Manassas, Va. 20108. Cells were cultured in Dulbecco's Modified Eagle's Medium (DMEM) containing 10% fetal bovine serum, plus 2 mM L-glutamine and 100 U/ml penicillin, 100 μg/ml streptomycin. Twenty-four to forty-eight (24-48) hours following addition of phage to cells, cultures were washed with phosphate buffered saline (PBS) and lysed in passive lysis buffer (Promega Corporation, Madison, Wis.). Protein content in the lysates was quantitated by Bradford assay, and equal amounts of lysate (normalized in terms of protein content) were used in luciferase assays. Luciferase assay data are reported in relative light units.
(§3) To analyze the function of the proteasome in phage-mediated gene transfer, HEK 293A cells and COS-7 cells were incubated with luciferase encoding phage particles, in the presence or absence of three different pharmacologic inhibitors of proteasome activity (lactacystin, bortezomib and MG132). Lactacystin is an irreversible inhibitor of the 20S-proteasome, while bortezomib and MG132 are reversible inhibitors of the 26S-proteasome complex. […] The latter phage were generated by producing genetically gpD-deficient lambda phage particles in E. coli host cells that expressed a recombinant derivative of gpD, fused to a truncated PEST-like motif derived from seeligeriolysin O, a cholesterol-dependent cytolysin of Listeria seeligeri.

HEK 293 cells [2] = test: Phage-mediated luciferase gene transfer in HEK 293 cells; type: cell-based, Human; details: for effect on phage-mediated luciferase gene transfer: MOI 1×10^6, omeprazole 50 μM, brefeldin A 500 ng/ml, chloroquine 50 μM for 24 h
Procedure: as §1, §2, §3

HEK 293 cells [3] = test: Quantitative analysis of intranuclear lambda phage genomic DNA (qPCR); type: cell-based, Human; details: Tpell phage, MOI 1×10^6, bortezomib 10 nM for 16 h, harvest at 24 h, p<0.01 vs untreated
Procedure: Quantitative analysis of intranuclear lambda phage genomic DNA. HEK 293 cells were incubated with phage lambda at a MOI of 10^6 in the presence or absence of 10 nM bortezomib. Sixteen (16) hours later, media was replaced with bortezomib-free DMEM (10% FBS); twenty-four (24) hours thereafter, cells were washed with cold PBS and non-internalized phage particles were then removed by performing 3 cold acid washes (0.2M CH3COOH, 0.5M NaCl, pH2.5), as described (Lankes et al., J. Appl. Microbiol 102(5):1337-49, 2007). […] Phage genomic DNA in the nuclear lysate was quantitated by DNA qPCR analysis on a BioRad iCycler using a TaqMan® (Roche Molecular Systems, Inc., Pleasanton, Calif.) primer/probe set specific for the lambda phage integrase gene (Probe: FAM-5′-[sequence]-3′-TAMRA (SEQ ID NO:2), Forward-5′-[sequence]-3′ (SEQ ID NO:3), Reverse-5′-[sequence]-3′ (SEQ ID NO:4)). Cellular chromosomal DNA in the nuclear lysate was also quantitated by DNA qPCR analysis using a TaqMan® (Roche Molecular Systems, Inc., Pleasanton, Calif.) primer/probe set specific for the 18S ribosomal RNA gene (Probe: FAM-5′-[sequence]-3′-TAMRA (SEQ ID NO:5), Forward-5′-[sequence]-3′ (SEQ ID NO:6), Reverse-5′-[sequence]-3′ (SEQ ID NO:7)). […]

HEK 293 cells [4] = test: Cytotoxicity / tolerability of proteasome inhibitors in HEK 293 cells; type: cell-based, Human
HEK 293 cells [5] = test: Plasmid (pCMV:luc) luciferase expression in transiently transfected HEK 293 cells; type: cell-based, Human; details: pCMV:luc transfected HEK 293; bortezomib 10 nM for 16 h; luciferase at 48 h
Procedure: Transient transfection of cells with plasmid DNA. 1×10^4 HEK 293 cells were seeded into 96-well plates and incubated overnight. Cells were then transfected with 50 ng of a mammalian expression plasmid encoding the luciferase reporter gene (pgWiz-CMV luciferase) using lipofectamine-2000 reagent in the presence or absence of lOnM bortezomib. Four (4) hours thereafter, media were removed and fresh media were added (with or without bortezomib). Cells were incubated for an additional 12 hours, and media were again replaced (this time without any exogenous drug). Forty-eight (48) hours after transfection of the cells, they were washed with PBS, incubated in 1× passive lysis buffer (Promega Corporation, Madison, Wis.) and lyzed using two freeze-thaw cycles. Protein content within the lysates was then quantitated using Bradford assay and equal amounts of lysate (normalized in terms of protein content) were used in luciferase assays. Luciferase assay data are reported in relative light units.
Therefore, a control experiment was performed to determine whether proteasome inhibition exerted an effect on luciferase expression from a non-phage based gene transfer agent containing the same luciferase expression cassette present in λD1180(luc). […]

HEK 293 cells [6] = test: Measurement of endosomal pH by flow cytometry of fluorescein/tetramethylrhodamine dextran; type: cell-based, Human; details: 500 nM bafilomycin A1
Procedure: Measurement of endosomal pH. 5×10^5 HEK293 cells were preincubated in DMEM medium with 10% FBS (DMEM-10) overnight, after which the medium was replaced by DMEM-10 containing 2 mg/ml 70kD fluorescein and tetramethylrhodamine dextran (Invitrogen, Carlsbad, Calif.) plus either 100 nM or 500 nM bafilomycin A1 (BAF) or 2 mg/mL of nigericin (positive control) or no drug (negative control). One and a half (1.5) hours later, cells were washed in warm PBS and fresh media was added (with or without BAF or nigericin, as appropriate). Two (2) hours thereafter, cells were again washed with warm PBS, detached by trypsinization, washed with fresh media (with or without BAF or nigericin, as appropriate), and pelleted by centrifugation (5 minutes, 1000 g at 4° C.). Fluorescein
(F) and tetramethylrhodamine (T) fluorescence were quantitated by flow cytometric analysis using a FACS Calibur (Becton Dickinson). A standard curve was generated by suspending aliquots of cells (in the presence of 2 mg/ml of nigericin) in PBS at pH 4, 4.4, 5, 5.4, 6 and 6.4. The ratio of T/F fluorescence was then plotted against pH, to generate a standard curve; data from the bafilomycin-treated and non-treated cells were then extrapolated to this curve, in order to calculate endosomal pH.

[7] = Tpell phage, luciferase at 48 h

SMILES: C/C1=C/C(=O)O[C@@H]2C[C@@H](CC[C@H](C)/C=C\C=C\CC1)O[C@@](O)([C@@H]1CSC(=O)N1)C2 [latrunculin A]
- effect on efficiency of plasmid DNA expression ([1]; latrunculin A 120 nM): no effect
- effect on adenoviral gene transfer efficiency (COS-7 cells): no effect

SMILES: CC(C)C[C@@H](C=O)NC(=O)[C@H](CC(C)C)NC(=O)[C@H](CC(C)C)NC(=O)OCc1ccccc1 [MG132] (Cbz-Leu-Leu-Leu-aldehyde)
- effect on phage-mediated luciferase gene expression (COS cells; WT and Tpell phage, MOI 1×10^6, lactacystin 3 μM, bortezomib 10 nM, MG132 1 μM for 16 h): strong trend
- enhancement of phage-mediated luciferase expression (HEK 293 cells [2]; WT and Tpell phage, MOI 1×10^6, MG132 1 μM for 16 h, luciferase at 48 h, vs untreated cells): 5-10 fold

SMILES: C[C@H]1CCC/C=C/[C@@H]2C[C@H](O)C[C@H]2[C@H](O)/C=C/C(=O)O1 [brefeldin A]
- effect on phage-mediated luciferase gene transfer (COS cells; Tpell phage): no effect
- effect on phage-mediated luciferase gene transfer (HEK 293 cells [2]; [7]): no effect

SMILES: COc1ccc2[nH]c([S+]([O-])Cc3ncc(C)c(OC)c3C)nc2c1 (stereo not shown) [omeprazole]
- effect on phage-mediated luciferase gene transfer (COS cells; Tpell phage): no effect
- effect on phage-mediated luciferase gene transfer (HEK 293 cells [2]; [7]): no effect

SMILES: CC(=O)O[C@H]1C(=O)[C@@]2(C)[C@H]([C@H](OC(=O)c3ccccc3)[C@]3(O)C[C@H](OC(=O)[C@H](O)[C@@H](NC(=O)c4ccccc4)c4ccccc4)C(C)=C1C3(C)C)[C@]1(OC(C)=O)CO[C@@H]1C[C@@H]2O [paclitaxel]
- increase in plasmid gene transfer efficiency [1]: approx 50 fold

SMILES: CC(C)C[C@H](NC(=O)[C@H](Cc1ccccc1)NC(=O)c1cnccn1)B(O)O [bortezomib]
- nuclear accumulation of phage DNA (copies of lambda phage genomic DNA per cell) (HEK 293 cells [3]): statistically significant increase
- cytotoxicity relative to the other proteasome inhibitors tested (HEK 293 cells [4]): least cytotoxic
- effect of extended exposure on phage-mediated gene transfer (HEK 293 cells [2]; Tpell phage, MOI 1×10^6, bortezomib 10 nM for 24 h, luciferase at 48 h): robust, statistically significant, enhancement
- effect on phage-mediated luciferase gene expression, agents alone and combined (HEK 293 cells [2]; Tpell phage, MOI 1×10^6, drugs for 24 h, luciferase at 48 h (FIG. 9)): modest increase
- effect on plasmid-mediated luciferase expression (HEK 293 cells [5]): no effect

SMILES: CO/C1=C\C(C)=C\[C@@H](C)[C@@H](O)[C@@H](C)C/C(C)=C/C=C/[C@H](OC)[C@@H]([C@@H](C)[C@@H](O)[C@H](C)[C@@]2(O)C[C@@H](O)[C@H](C)[C@@H](C(C)C)O2)OC1=O [bafilomycin A1]
- effect on phage-mediated gene transfer (COS cells; Tpell phage, MOI 1×10^6, bafilomycin A for 24 h): no effect
- effect on endosomal pH (HEK 293 cells [6]): sufficient to raise endosomal pH
- effect on phage-mediated gene transfer (HEK 293 cells [2]; Tpell phage, MOI 1×10^6, bafilomycin A for 24 h, luciferase at 48 h): no effect

SMILES: COC(=O)Nc1nc2ccc(C(=O)c3cccs3)cc2[nH]1 [nocodazole]
- increase in plasmid gene transfer efficiency [1]: approx 50 fold

SMILES: CCN(CC)CCCC(C)Nc1ccnc2cc(Cl)ccc12 (stereo not shown) [chloroquine]
- effect on phage-mediated luciferase gene transfer (COS cells; Tpell phage): statistically significant enhancement
